Tests used:
[1] = biological target: T1, Homo sapiens CYP51 (HsCYP51) (Homo sapiens, UniProt Q16850); design: method as in PMID 20149798; settings: ref [40]; read-out: Kd with HsCYP51, previously reported; cited from earlier work
T1 construct: made in house; host or cells: E. coli
T1 sequence (Q16850 1-509): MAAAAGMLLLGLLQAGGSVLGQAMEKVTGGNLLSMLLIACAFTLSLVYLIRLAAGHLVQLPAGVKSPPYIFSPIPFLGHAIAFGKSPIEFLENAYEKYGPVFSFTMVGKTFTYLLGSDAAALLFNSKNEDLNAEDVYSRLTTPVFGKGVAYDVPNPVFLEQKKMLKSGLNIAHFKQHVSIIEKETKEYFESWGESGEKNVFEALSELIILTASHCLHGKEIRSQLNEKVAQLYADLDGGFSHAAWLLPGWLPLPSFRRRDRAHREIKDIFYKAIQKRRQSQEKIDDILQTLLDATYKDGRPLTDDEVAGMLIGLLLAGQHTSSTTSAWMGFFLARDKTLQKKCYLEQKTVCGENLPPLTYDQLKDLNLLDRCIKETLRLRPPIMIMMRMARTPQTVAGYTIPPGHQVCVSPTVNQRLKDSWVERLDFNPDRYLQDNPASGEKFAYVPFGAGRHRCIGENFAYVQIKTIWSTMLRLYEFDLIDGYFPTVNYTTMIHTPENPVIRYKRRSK

[2] = biological target: T2, Human leukocyte 5-lipoxygenase (Homo sapiens, UniProt P09917); assay: Lipoxygenase UV-based inhibitor assay, 5-LOX; type: biochemical; settings: for IC50: UV-based assay, 10 µM AA, pH 7.3, crude enzyme, error = SD, read-out: 5-LOX IC50
T2 construct: made in house
T2 sequence (P09917 1-674): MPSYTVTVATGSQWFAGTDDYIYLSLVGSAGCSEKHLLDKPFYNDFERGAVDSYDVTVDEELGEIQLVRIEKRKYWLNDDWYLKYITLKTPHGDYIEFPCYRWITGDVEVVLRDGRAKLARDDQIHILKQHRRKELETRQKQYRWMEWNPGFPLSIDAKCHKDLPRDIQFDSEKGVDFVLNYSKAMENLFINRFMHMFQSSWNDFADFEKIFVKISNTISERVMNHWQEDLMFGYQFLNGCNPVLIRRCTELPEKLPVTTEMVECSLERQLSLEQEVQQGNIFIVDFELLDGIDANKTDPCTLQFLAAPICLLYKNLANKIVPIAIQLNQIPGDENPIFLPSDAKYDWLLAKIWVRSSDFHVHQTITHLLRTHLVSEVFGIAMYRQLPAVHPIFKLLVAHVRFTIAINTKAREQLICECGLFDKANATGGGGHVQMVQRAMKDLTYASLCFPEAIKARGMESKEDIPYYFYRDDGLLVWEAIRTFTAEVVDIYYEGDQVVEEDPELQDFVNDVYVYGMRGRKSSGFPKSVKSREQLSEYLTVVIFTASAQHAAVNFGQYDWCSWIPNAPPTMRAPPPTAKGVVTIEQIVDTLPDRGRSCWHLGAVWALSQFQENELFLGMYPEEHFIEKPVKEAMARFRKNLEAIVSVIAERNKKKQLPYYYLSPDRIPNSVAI
Description: (§1) Human leukocyte 5-lipoxygenase was expressed as a non-tagged protein and used as a crude ammonium sulfate protein fraction, as published previously.
(§2) Inhibitor potencies were evaluated through use of the standard UV-based inhibitor assay. The initial rates were determined by following the formation of the conjugated diene product at 234 nm (ε = 25,000 M^−1 cm^−1) with a Perkin-Elmer Lambda 40 UV/Vis spectrophotometer at one substrate concentration and varying inhibitor concentrations. All reactions were 2 mL in volume and constantly stirred using a magnetic stir bar at room temperature (23°C), with the enzyme specific buffer conditions outlined in Table 1. The substrate used for the various isozymes was arachidonic acid (AA) for 5-LOX, 12-LOX, and 15-LOX-2 and linoleic acid (LA) for 15-LOX-1, where concentrations were quantitatively determined by allowing the enzymatic reaction to go to completion. IC50 values were obtained by determining the initial rate at various inhibitor concentrations and plotting them against inhibitor concentration, followed by a hyperbolic saturation curve fit. The data used for the saturation curves were performed in duplicate or triplicate, depending on the quality of the data. […] Inhibitors were stored at −20°C in DMSO. […] The solvent isotope effect of the inhibitor IC50 was investigated utilizing the same conditions and methods as stated above. The pH of the buffered D2O was determined as reported previously.

[3] = biological target: T3, human platelet 12-lipoxygenase (12-LOX) (Homo sapiens, UniProt P18054); assay: Lipoxygenase UV-based inhibitor assay, 12-LOX; type: biochemical; settings: 10 µM AA, pH 8.0
T3 construct: His6 (N); made in house
T3 sequence (P18054 1-663): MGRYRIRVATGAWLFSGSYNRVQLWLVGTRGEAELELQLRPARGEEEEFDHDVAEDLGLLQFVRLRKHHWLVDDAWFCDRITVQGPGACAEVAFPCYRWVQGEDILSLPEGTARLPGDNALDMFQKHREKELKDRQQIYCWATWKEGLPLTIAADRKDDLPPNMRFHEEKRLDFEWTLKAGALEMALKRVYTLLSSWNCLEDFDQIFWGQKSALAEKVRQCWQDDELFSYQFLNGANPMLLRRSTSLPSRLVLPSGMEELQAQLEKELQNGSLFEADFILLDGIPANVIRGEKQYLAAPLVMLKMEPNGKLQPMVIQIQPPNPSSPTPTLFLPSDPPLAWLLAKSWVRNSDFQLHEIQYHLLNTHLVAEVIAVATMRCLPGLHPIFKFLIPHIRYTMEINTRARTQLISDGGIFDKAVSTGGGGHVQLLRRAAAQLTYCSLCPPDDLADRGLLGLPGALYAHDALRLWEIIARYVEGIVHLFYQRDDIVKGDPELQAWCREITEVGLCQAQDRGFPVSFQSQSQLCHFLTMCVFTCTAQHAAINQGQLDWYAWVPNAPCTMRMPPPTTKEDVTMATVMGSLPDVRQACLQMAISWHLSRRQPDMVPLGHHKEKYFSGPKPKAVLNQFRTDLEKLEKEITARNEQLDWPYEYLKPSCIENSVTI
Description: as §1, §2

[4] = biological target: T4, Human reticulocyte 15-lipoxygenase-1 (15-LOX-1) (Homo sapiens, UniProt P16050); assay: Lipoxygenase UV-based inhibitor assay, 15-LOX-1; type: biochemical; settings: 10 µM LA, pH 7.5
T4 construct: His6 (N); made in house
T4 sequence (P16050 1-662): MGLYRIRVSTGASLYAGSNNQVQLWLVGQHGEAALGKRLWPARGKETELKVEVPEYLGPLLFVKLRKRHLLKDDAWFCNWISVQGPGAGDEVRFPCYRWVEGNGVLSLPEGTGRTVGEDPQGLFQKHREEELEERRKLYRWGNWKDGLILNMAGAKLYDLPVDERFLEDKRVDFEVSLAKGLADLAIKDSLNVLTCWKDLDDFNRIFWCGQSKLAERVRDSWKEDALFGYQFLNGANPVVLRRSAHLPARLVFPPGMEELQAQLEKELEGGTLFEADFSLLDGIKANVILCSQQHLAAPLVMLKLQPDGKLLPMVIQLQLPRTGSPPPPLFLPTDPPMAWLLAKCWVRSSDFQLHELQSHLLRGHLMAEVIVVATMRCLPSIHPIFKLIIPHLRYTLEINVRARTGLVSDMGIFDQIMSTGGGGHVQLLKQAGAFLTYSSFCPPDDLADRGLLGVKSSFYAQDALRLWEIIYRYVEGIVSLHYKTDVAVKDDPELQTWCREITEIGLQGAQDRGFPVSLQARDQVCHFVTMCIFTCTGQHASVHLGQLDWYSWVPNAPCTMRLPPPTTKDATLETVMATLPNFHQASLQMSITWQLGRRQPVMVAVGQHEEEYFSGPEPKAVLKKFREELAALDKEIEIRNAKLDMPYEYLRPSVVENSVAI
Description: as §1, §2

[5] = tested on: LTB4 synthesis in whole human blood; assay: Human blood LTB4 inhibition assay; type: cell-based; settings: Homo sapiens, compounds at 10 µM, calcium ionophore stimulated, ELISA; error in parentheses
Description: Whole human blood was obtained from healthy volunteers from within the Student Health Center. These studies were approved by the UCSC Institutional Review Board (IRB) and informed consent was obtained from all donors before blood draw. The whole blood was dispensed in 150 µL samples followed by addition of inhibitor or control (vehicle, DMSO), and incubated for 15 min at 37°C. The mixture was then stimulated by introduction of the calcium ionophore, […], (freshly diluted from a 50 mM DMSO stock to 1.5 mM in Hanks balanced salt solution), and incubated for 30 min at 37°C. Samples were then centrifuged at 1,500 rpm (300 g) for 10 min at 4°C and the supernatant diluted between 20 and 50-fold (batch dependent) for LTB4 detection, using an ELISA detection kit (Cayman Chemicals Inc.).

[6] = biological target: T5, human prostate epithelial 15-lipoxygenase-2 (15-LOX-2) (Homo sapiens, UniProt O15296); assay: Lipoxygenase UV-based inhibitor assay, 15-LOX-2; type: biochemical; settings: 30 µM AA, pH 7.5
T5 construct: His6 (N); made in house
T5 sequence (O15296 1-676): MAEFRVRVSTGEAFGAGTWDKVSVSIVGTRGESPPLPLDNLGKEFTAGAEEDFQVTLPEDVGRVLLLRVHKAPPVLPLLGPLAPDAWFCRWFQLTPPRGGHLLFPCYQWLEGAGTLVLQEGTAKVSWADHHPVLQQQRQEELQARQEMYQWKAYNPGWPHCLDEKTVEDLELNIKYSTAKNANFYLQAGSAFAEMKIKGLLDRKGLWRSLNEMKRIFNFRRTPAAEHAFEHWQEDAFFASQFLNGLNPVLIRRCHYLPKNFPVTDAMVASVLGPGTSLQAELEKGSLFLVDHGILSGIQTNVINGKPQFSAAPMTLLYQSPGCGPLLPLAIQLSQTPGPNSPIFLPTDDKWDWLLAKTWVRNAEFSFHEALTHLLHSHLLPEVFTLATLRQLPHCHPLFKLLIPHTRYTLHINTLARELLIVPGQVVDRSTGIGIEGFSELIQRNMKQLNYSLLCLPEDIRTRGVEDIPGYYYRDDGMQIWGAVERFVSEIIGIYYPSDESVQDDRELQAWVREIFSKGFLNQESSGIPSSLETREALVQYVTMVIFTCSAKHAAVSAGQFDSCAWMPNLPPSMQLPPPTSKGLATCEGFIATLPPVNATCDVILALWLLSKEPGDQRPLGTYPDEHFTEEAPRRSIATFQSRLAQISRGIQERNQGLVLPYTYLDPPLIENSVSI
Description: as §1, §2

5-LOX = biological target: T6, 5-LOX (Homo sapiens, UniProt P09917); assay: Pseudoperoxidase activity assay; type: biochemical; settings: 10 µM inhibitor, 10 µM 13-HPODE, positive = loss of greater than 40% of product absorption at 234 nm
T6 construct: made in house
T6 sequence (P09917 1-674): T2 sequence (P09917 1-674)
Description: The reductive properties of the inhibitors were determined by monitoring the pseudoperoxidase activity of lipoxygenase in the presence of the inhibitor and 13-(S)-hydroperoxyoctadecadienoic acid (13-HPODE). Activity is monitored by direct measurement of the product degradation following the decrease of absorbance at 234 nm using a Perkin-Elmer Lambda 40 UV/Vis spectrometer (50 mM Sodium Phosphate (pH 7.4), 0.3 mM CaCl2, 0.1 mM EDTA, 0.01% Triton X100, 10 µM 13-HPODE). All reactions were performed in 2 mL of buffer and constantly stirred with a rotating stir bar (23°C). Reaction was initiated by addition of 10 µM inhibitor (a 1 to 1 ratio to 13-HPODE), and a positive result for activity reflected a loss of greater than 40% of product absorption at 234 nm.

For `Clc1ccccc1C(c1ccccc1)(c1ccccc1)n1ccnc1` [clotrimazole], the Kd [1] is given as < 0.1 µM.
Work on `CC(C)(C)OC(=O)N1CCN(c2ccc(NCc3cnc(-c4ccc(C#N)cc4)o3)cc2)CC1` [Compound 8] yielded an IC50 [2] of 0.1 µM.
For `CC(=O)N1CCN(c2ccc(NCc3ccc(C)cc3)cc2)CC1` [Compound 11], the IC50 [2] was 1.1 µM.
Molecule `CC(C)(C)OC(=O)N1CCN(c2ccc(NCc3ncc(-c4ccc(C#N)cc4)o3)cc2)CC1` [Compound 9] has an IC50 [2] of 1.5 µM.
With `Cc1ccc(CNc2ccc(N3CCCCC3)cc2)cc1` [Compound 15] the IC50 [3] was > 50 µM, the IC50 [4] was > 150 µM and the IC50 [2] was 0.6 µM. For the same molecule, the inhibition at 10 µM [5] was < 10% and the IC50 [6] was > 50 µM.
In the case of `CC(C)(C)OC(=O)N1CCN(c2ccc(OCc3ccc(-c4ccc(C#N)cc4)o3)cc2)CC1` [Compound 3], the “Reductive activity (pseudoperoxidase activity)” value (“Reductive activity” for short) (5-LOX) is reported as “No”, the “5-LOX inhibition, in words” value [2] is reported as “complete loss of inhibition” and the IC50 [2] is reported as > 150 µM.
In the case of `CC(C)(C)OC(=O)N1CCN(c2ccc(NCc3nnc(-c4ccc(C#N)cc4)o3)cc2)CC1` [Compound 10], the IC50 [2] is reported as > 150 µM and the “decrease in 5-LOX potency” value ([2]; relative to the other analogues of Figure 3) is reported as “greater than 10 fold”.
For `Clc1ccc(COC(Cn2ccnc2)c2ccc(Cl)cc2Cl)c(Cl)c1` (stereo not shown) [miconazole], the Kd [1] is listed as < 0.1 µM.
With `CC(C)(C)OC(=O)N1CCN(c2ncc(NCc3ccc(-c4ccc(C#N)cc4)o3)cn2)CC1` [Compound 4] the “Reductive activity” value (5-LOX) was “No”, the “5-LOX inhibition, in words” value [2] was “complete loss of inhibition” and the IC50 [2] was > 150 µM.
With `CC(C)(C)OC(=O)N1CCN(c2cnc(NCc3ccc(-c4ccc(C#N)cc4)o3)nc2)CC1` [Compound 5] the “Reductive activity” value (5-LOX) was “No”, the “5-LOX inhibition, in words” value [2] was “complete loss of inhibition” and the IC50 [2] was > 150 µM.
In the case of `CC(C)(C)OC(=O)N1CCC(c2ccc(NCc3ccc(-c4ccc(C#N)cc4)o3)cc2)CC1` [Compound 2], the “Reductive activity” value (5-LOX) is reported as “No”, the “5-LOX inhibition, in words” value [2] is reported as “complete loss of inhibition” and the IC50 [2] is reported as > 150 µM.
In the case of `CN(Cc1ccc(-c2ccc(C#N)cc2)o1)c1ccc(N2CCN(C(=O)OC(C)(C)C)CC2)cc1` [Compound 7], the “Reductive activity” value (5-LOX) is reported as “Yes” and the IC50 [2] is reported as 2.7 µM.
With `CC(c1cc2ccccc2s1)N(O)C(N)=O` (stereo not shown) [zileuton, reference compound] the IC50 [3] was > 150 µM, the “Reductive activity” value (5-LOX) was “reductive” and the “Reductive activity” value (5-LOX; listed as Zilueton) was “Yes”. The IC50 [4] was > 50 µM.
Molecule `CC(=O)N1CCN(c2ccc(NCc3ccc(-c4ccc(Br)cc4)o3)cc2)CC1` [Compound 12] has an IC50 [2] of 2.6 µM.

From publication PMC3691235, “Discovery of a Novel Dual Fungal CYP51/Human 5-Lipoxygenase Inhibitor: Implications for Anti-Fungal Therapy” (PLoS ONE, 2013)
